From patent publication US8802711B2, “TRPV1 antagonists” (AbbVie Inc., priority 2011, dated 2014)

Assays:
[1] = molecular target: T1, human TRPV1 receptor (hTRPV1) (Homo sapiens (Human), UniProt Q8NER1); assay: Acid activation assay (pH 5.0, FLIPR intracellular Ca2+); assay type: cell-based; settings: Table 1, 37.5 μM antagonist, percentage of the maximal pH 5.0-induced response remaining; for remaining activity at 37.5 µM: read-out: hTRPV1 H+ (max % remain)
Method in brief: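 1321N1 astrocytoma cells stably expressing homomeric hTRPV1, loaded with Calcium-4 dye 90–120 min at 25 °C. Compounds, 12-point half-log range, added 3 min before pH 5.0 DPBS/MES challenge; intracellular Ca2+ read by FLIPR fluorescence.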

[2] = molecular target: T1, human TRPV1 receptor (hTRPV1); assay: Capsaicin activation assay (FLIPR intracellular Ca2+); assay type: cell-based; settings: Table 1; inhibition of capsaicin-induced intracellular Ca2+ increase, HEK293 cells expressing human TRPV1; read-out: hTRPV1 cap IC50
Method in brief: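 HEK293 cells stably expressing human TRPV1, loaded with Calcium-4 dye 90–120 min at room temperature, preincubated 3 min with compound (12-point one-third-log range) before capsaicin (200 nM as 4× solution). Peak FLIPR fluorescence minus baseline expressed as percent of 50 nM capsaicin control response.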

T1 sequence (Q8NER1 whole entry): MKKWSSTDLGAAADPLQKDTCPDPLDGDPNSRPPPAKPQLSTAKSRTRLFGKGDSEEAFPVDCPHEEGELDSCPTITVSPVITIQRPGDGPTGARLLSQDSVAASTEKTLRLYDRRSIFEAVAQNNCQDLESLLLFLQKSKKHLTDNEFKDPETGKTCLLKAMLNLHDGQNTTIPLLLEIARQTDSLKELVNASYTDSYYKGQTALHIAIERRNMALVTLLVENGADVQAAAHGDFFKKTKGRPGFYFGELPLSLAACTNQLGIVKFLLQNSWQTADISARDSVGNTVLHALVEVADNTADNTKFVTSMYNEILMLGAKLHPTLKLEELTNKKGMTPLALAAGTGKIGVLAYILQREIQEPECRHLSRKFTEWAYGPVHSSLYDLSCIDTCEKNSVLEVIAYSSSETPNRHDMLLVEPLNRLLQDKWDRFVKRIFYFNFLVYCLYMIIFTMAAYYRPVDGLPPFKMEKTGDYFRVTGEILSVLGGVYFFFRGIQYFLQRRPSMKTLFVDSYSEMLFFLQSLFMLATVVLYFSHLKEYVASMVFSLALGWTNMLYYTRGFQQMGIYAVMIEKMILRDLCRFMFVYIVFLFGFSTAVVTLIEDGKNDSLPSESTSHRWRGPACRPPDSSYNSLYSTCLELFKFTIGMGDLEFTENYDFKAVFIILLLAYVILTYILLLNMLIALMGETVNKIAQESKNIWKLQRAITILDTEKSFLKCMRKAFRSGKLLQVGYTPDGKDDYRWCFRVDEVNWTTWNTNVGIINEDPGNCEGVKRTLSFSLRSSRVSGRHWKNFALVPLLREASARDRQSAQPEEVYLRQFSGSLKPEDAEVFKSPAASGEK

Compound | remaining activity at 37.5 µM [1] | IC50 [2] | hTRPV1 H+ (max % remain) [1]
O=C(Nc1cccc2c1C[C@H](O)CC2)N[C@@H]1CC[C@@H](c2ccccc2)C1 [Compound E, 1-[(7R)-7-hydroxy-5,6,7,8-tetrahydronaphthalen-1-yl]-3-[(1R,3R)-3-phenylcyclopentyl]urea, reference compound] | 1% | 5 nM | –
O=C(Nc1cccc2[nH]ncc12)N[C@H]1CC[C@H](c2ccc(C(F)(F)F)cc2)C1 [Example 41, 1-(1H-indazol-4-yl)-3-{(1S,3S)-3-[4-(trifluoromethyl)phenyl]cyclopentyl}urea] | 1% | 311 nM | –
O=C(Nc1cccc2[nH]ncc12)NC1CC[C@H](c2ccc(F)cc2)C1 (stereo partly drawn) [Example 45, 1-[(3S)-3-(4-fluorophenyl)cyclopentyl]-3-(1H-indazol-4-yl)urea] | 9% | 26 nM | –
O=C(Nc1cccc2[nH]ncc12)N[C@H]1CCC[C@H](c2ccc(C(F)(F)F)cc2)C1 [Example 32, 1-(1H-indazol-4-yl)-3-{(1S,3S)-3-[4-(trifluoromethyl)phenyl]cyclohexyl}urea] | 32% | 795 nM | –
O=C1CCc2ccc(NC(=O)N[C@H]3CC[C@H](c4ccccc4)C3)cc2N1 [Example 12, 1-(2-oxo-1,2,3,4-tetrahydroquinolin-7-yl)-3-[(1S,3S)-3-phenylcyclopentyl]urea] | 65% | 207 nM | –
O=C(Nc1cccc2[nH]ncc12)N[C@@H]1CC[C@H](c2ccc(C(F)(F)F)cc2)C1 [Example 42, 1-(1H-indazol-4-yl)-3-{(1R,3S)-3-[4-(trifluoromethyl)phenyl]cyclopentyl}urea] | 3% | 17 nM | –
O=C(Nc1cccc2c1C[C@H](O)CC2)N[C@H]1CC[C@H](c2ccccc2)C1 [Compound A, 1-[(7R)-7-hydroxy-5,6,7,8-tetrahydronaphthalen-1-yl]-3-[(1S,3S)-3-phenylcyclopentyl]urea, reference compound] | 2% | 4 nM | –
Cn1c(=O)ccc2c(NC(=O)N[C@H]3CC[C@@H](c4ccccc4F)C3)cccc21 [Example 80, 1-[(1S,3R)-3-(2-fluorophenyl)cyclopentyl]-3-(1-methyl-2-oxo-1,2-dihydroquinolin-5-yl)urea] | 55% | 10 nM | –
O=C(Nc1cccc2[nH]ncc12)N[C@H]1CC[C@@H](c2ccc(C(F)(F)F)cc2)C1 [Example 43, 1-(1H-indazol-4-yl)-3-{(1S,3R)-3-[4-(trifluoromethyl)phenyl]cyclopentyl}urea] | 55% | 221 nM | –
C[C@H]1Oc2c(NC(=O)N[C@@H]3CC[C@H](c4ccccc4)C3)cccc2NC1=O [Example 3, 1-[(2R)-2-methyl-3-oxo-3,4-dihydro-2H-1,4-benzoxazin-8-yl]-3-[(1R,3S)-3-phenylcyclopentyl]urea] | 2% | 55 nM | –
O=C(Nc1cccc2[nH]ncc12)N[C@@H]1C[C@H](c2ccccc2)[C@@H]2[C@H]1C2(F)F [Example 54, 1-((1R,2R,4S,5R)-6,6-difluoro-4-phenylbicyclo[3.1.0]hex-2-yl)-3-(1H-indazol-4-yl)urea] | 69% | 1340 nM | –
O=C(Nc1cccc2[nH]ncc12)N[C@H]1CC[C@@H](c2cccc(F)c2)C1 [Example 69, 1-[(1S,3R)-3-(3-fluorophenyl)cyclopentyl]-3-(1H-indazol-4-yl)urea] | 2% | 12 nM | –
O=C(Nc1cccc2[nH]ncc12)N[C@@H]1CCC[C@@H](c2ccc(C(F)(F)F)cc2)C1 [Example 31, 1-(1H-indazol-4-yl)-3-{(1R,3R)-3-[4-(trifluoromethyl)phenyl]cyclohexyl}urea] | 35% | 1840 nM | –
O=C(Nc1cccc2[nH]ncc12)N[C@H]1C=C[C@@H](c2ccccc2)C1 [Example 63, 1-(1H-indazol-4-yl)-3-[(1R,4S)-4-phenylcyclopent-2-en-1-yl]urea] | 38% | 122 nM | –

Results, then the molecule that gave them:

remaining activity at 37.5 µM [1] | IC50 [2] | hTRPV1 H+ (max % remain) [1] | Compound
66% | 116 nM | – | O=C(Nc1ccc2c(c1)NC(=O)C(N1CCOCC1)C2)N[C@@H]1CC[C@H](c2ccccc2)C1 (stereo partly drawn) [Example 142, 1-[3-(morpholin-4-yl)-2-oxo-1,2,3,4-tetrahydroquinolin-7-yl]-3-[(1R,3S)-3-phenylcyclopentyl]urea]
0% | 156 nM | – | O=C(Nc1cccc2c1CCCC2)N[C@@H]1CC[C@H](c2ccccc2)C1 [Example 138, 1-[(1R,3S)-3-phenylcyclopentyl]-3-(5,6,7,8-tetrahydronaphthalen-1-yl)urea]
16% | 507 nM | – | Cc1cc2c(NC(=O)N[C@@H]3CC[C@@H](c4nc(C)cs4)C3)c(F)ccc2cn1 [Example 133, 1-(6-fluoro-3-methylisoquinolin-5-yl)-3-[(1R,3R)-3-(4-methyl-1,3-thiazol-2-yl)cyclopentyl]urea]
46% | 14 nM | – | CN1C(=O)CCc2c(NC(=O)N[C@@H]3CC[C@H](c4ccccc4)C3)cccc21 [Example 94, 1-(1-methyl-2-oxo-1,2,3,4-tetrahydroquinolin-5-yl)-3-[(1R,3S)-3-phenylcyclopentyl]urea]
– | 25 nM | 4% | Cn1ncc2c(NC(=O)N[C@@H]3CC[C@@H](c4cccc(F)c4)C3)cccc21 [Example 101, 1-[(1R,3R)-3-(3-fluorophenyl)cyclopentyl]-3-(1-methyl-420-1-21H-indazol-4-yl)urea]
35% | 1370 nM | – | O=C(Nc1cccc2c1CCC2)N[C@H]1CC[C@H](c2ccccc2)C1 [Example 112, 1-(2,3-dihydro-1H-inden-4-yl)-3-[(1S,3S)-3-phenylcyclopentyl]urea]
50% | 6480 nM | – | O=C(Nc1cccc2c1CCC2)N[C@H]1CC[C@@H](c2ccccc2)C1 [Example 124, 1-(2,3-dihydro-1H-inden-4-yl)-3-[(1S,3R)-3-phenylcyclopentyl]urea]
89% | > 37500 nM | – | CC(C)Cc1cc2c(NC(=O)N[C@@H]3CC[C@H](c4ccccc4)C3)c(F)ccc2cn1 [Example 139, 1-[6-fluoro-3-(2-methylpropyl)isoquinolin-5-yl]-3-[(1R,3S)-3-phenylcyclopentyl]urea]
15% | 88 nM | – | O=C(Nc1cccc2c1C[C@@H](O)C2)N[C@H]1CC[C@@H](c2ccccc2F)C1 [Example 89, 1-[(1S,3R)-3-(2-fluorophenyl)cyclopentyl]-3-[(2S)-2-hydroxy-2,3-dihydro-1H-inden-4-yl]urea]
54% | 109 nM | – | O=C(Nc1cccc2c1C[C@H](O)C2)N[C@@H]1CC[C@@H](c2cccc(F)c2)C1 [Example 90, 1-[(1R,3R)-3-(3-fluorophenyl)cyclopentyl]-3-[(2R)-2-hydroxy-2,3-dihydro-1H-inden-4-yl]urea]
12% | 3.3 nM | – | Cc1cc2c(NC(=O)N[C@@H]3CC[C@@H](c4ccccc4F)C3)c(F)ccc2cn1 [Example 82, 1-(6-fluoro-3-methylisoquinolin-5-yl)-3-[(1R,3R)-3-(2-fluorophenyl)cyclopentyl]urea]
